We go through seven molecules from PMC12654597, “Dawson- and Lindqvist-Type Hybrid Polyoxometalates: Synthesis, Characterization and Ca^2+-ATPase Inhibition Potential” (Molecules, 2025).

Read-outs that look alike come from different tables or passages of the source.

Assay [1] deals with T1, sarcoplasmic reticulum (SR) Ca^2+-ATPase (Oryctolagus cuniculus, UniProt P04191).
T1 construct: The experiments were performed with isolated sarcoplasmic reticulum vesicles (SRVs); from tissue; host or cells: rabbit skeletal muscle sarcoplasmic reticulum vesicles
T1 sequence (P04191 1-994 isoform P04191-2): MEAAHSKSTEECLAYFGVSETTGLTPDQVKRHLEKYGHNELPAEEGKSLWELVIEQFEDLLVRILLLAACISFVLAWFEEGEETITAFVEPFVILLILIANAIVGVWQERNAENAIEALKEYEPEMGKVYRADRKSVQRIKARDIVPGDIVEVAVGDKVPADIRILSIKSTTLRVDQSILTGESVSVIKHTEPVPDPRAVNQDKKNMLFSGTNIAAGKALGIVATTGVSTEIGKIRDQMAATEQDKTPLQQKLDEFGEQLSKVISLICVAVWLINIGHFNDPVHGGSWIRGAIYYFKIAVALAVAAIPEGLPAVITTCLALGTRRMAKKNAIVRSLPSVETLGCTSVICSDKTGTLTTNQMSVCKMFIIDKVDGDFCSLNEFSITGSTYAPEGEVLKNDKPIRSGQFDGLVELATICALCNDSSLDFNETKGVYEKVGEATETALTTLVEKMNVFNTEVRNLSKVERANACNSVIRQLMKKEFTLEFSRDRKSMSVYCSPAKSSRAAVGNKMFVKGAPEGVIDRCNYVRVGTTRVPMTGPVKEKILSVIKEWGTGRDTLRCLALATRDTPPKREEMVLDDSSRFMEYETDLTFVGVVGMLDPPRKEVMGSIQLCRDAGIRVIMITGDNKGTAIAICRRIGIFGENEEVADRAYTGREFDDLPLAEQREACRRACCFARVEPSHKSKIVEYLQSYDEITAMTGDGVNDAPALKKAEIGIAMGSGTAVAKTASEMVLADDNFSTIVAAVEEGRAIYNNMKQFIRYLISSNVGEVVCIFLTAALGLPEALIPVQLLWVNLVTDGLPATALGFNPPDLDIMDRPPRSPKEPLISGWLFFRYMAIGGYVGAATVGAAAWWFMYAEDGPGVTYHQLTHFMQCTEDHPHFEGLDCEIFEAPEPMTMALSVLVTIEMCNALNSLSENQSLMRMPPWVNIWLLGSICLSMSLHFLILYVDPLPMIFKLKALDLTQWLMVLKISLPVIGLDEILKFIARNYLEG
The note with it: cited from earlier work; for IC50: same experimental model, method and conditions.

In assay [2] the target is Ca^2+-ATPase. The note with it: literature values for known P-type ATPase inhibitors; cited from earlier work.
The target in assay [3] is T1, sarcoplasmic reticulum (SR) Ca^2+-ATPase. In words: Sarcoplasmic reticulum Ca2+-ATPase activity, coupled enzyme pyruvate kinase/lactate dehydrogenase assay. It counts as biochemical, rabbit. As to conditions: for IC50: SR vesicles from rabbit skeletal muscle, pH 7.0, 25 °C, uncoupled activity (A23187), triplicate. The source says: In order to evaluate the inhibition potential for each of the POMs compounds regarding the Ca^2+-ATPase activity, increasing concentrations of each POM and a control without the presence of the inhibitor were used in order to determine the IC50 values. For each of these assays, an absorbance versus time kinetic is obtained. In the absence of the POM, the control assay was obtained—that is, a kinetic with a higher slope, while by increasing the concentrations of the POMs, lower enzymatic kinetic slopes were found due to the inhibition of the ATPase activity (Figure S1).
Using this method, the effects of the inhibitors can be observed in real time and recorded within 2 to 5 min upon addition of the inhibitor, as described previously. […] For each compound, the equation governing the trendline of this can be solved for 50% in order to determine the IC50 value.
The sarcoplasmic reticulum vesicles (SRV) that contain the Ca^2+-ATPase was previously prepared from rabbit skeletal muscles as described elsewhere. The vesicles were suspended in 0.1 M KCl, 10 mM HEPES (pH 7.0), diluted 1:1 with 2.0 M sucrose, and frozen in liquid nitrogen for storage at −80 °C. […] Stock solutions of the POMs compounds (1 mM) were freshly prepared by dissolving the solid compound in miliQ water and keeping the solution at room temperature before use.
For carrying out the determination of Ca^2+-ATPase activity assays, the following medium was prepared: 25 mM HEPES (pH 7.0), 100 mM KCl, 5 mM MgCl2 and 50 µM CaCl2.
The experiments were performed with isolated sarcoplasmic reticulum vesicles (SRVs) previously diluted to 1 mg/mL with a sucrose concentration of 0.25 M (Figure 11). 0.8 mL of medium described above was added into a quartz cuvette. 0.42 mM phosphoenolpyruvate (PEP), 18 IU lactate dehydrogenase, 7.5 IU 155 pyruvate kinase, and 2.5 mM ATP without (control) or with increasing concentrations of POMs were added to this medium. […] The absorbance of the solution was measured spectrophotometrically at 340 nm, 25 °C, and an auto zero was performed. Subsequently, 0.25 mM NADH was added, allowing the absorbance value to stabilize to about 1.3 O.D. The assay begins after the addition of 10 μg/mL of Ca^2+-ATPase (basal activity) and one minute after ionophore A23187 (calcimycin) 4% (w/w) was added (uncoupled activity), and the kinetics followed for about 2 min in the absence or in the presence of increasing concentrations of POMs, from 0 to 15 μM for compound 1 and from 0 to 80 μM for compound 2. […]
For each experimental condition, the experiments were always performed in triplicate. Therefore, the determination of Ca^2+-ATPase activity without and with the inhibitor was made using a continuous enzymatic method using the measurement of absorbance versus time (Figure S1), as described elsewhere.

One may read the IC50 as the midpoint of a concentration-inhibition curve. Regarding `[O]=[V]([OH])([OH])[O][V]1(=[O])[O][V]2(=[O])[O][V](=[O])([O][V](=[O])([OH])[OH])[O][V](=[O])([O]2)[O][V]2(=[O])[O][V](=[O])([O][V](=[O])([OH])[OH])[O][V](=[O])([O]1)[O]2` (stereo not shown) [V10, decavanadate], in assay [1], the 50% inhibitory concentration (IC50) is 15 µM. As for `C/C=C(/C)C(=O)O[C@H]1C(C)=C2[C@H]([C@@H]1OC(=O)CCCCCCC)[C@@](C)(OC(C)=O)C[C@H](OC(=O)CCC)[C@@]1(O)[C@H]2OC(=O)[C@@]1(C)O` [TG, thapsigargin], the IC50 in assay [2] was 0.001 to 0.029 µM.

(C2H8N1)6[V2Mo18O62].3H2O [compound 1] displayed an IC50 in assay [3] of 3.4 µM. For the same molecule, the “fold inhibition potential regarding ATPase activity relative to compound 2” value in assay [3] (ratio of IC50 values, compound 1 vs compound 2) was “about 13 fold”. Regarding `CC(=O)C1=C(O)[C@@H]2[C@H]3c4c[nH]c5cccc(c45)C[C@H]3C(C)(C)N2C1=O` [CPA, cyclopiazonic acid], in assay [2], the half-inhibitory concentration (IC50) is 0.1 to 0.2 µM.

Consider `Cc1ccc(-c2cc(C(F)(F)F)nn2-c2ccc(S(N)(=O)=O)cc2)cc1` [celecoxib], for which, in assay [2], the IC50 is 35 µM. On to metformin-decavanadate [Metf-V10], for which the “IC50 ATPase inhibition value relative to V10 alone” value in assay [1] (metformin-decavanadate vs V10) is “six times higher”. Moreover, the IC50 in assay [1] was 87.4 µM. In assay [3], (C4H16N3)4[V2W4O19]3.12H2O [compound 2] registered a 50% inhibitory concentration (IC50) of 45.1 µM. Moreover, in assay [3] (comparison of IC50 values, compound 2 vs TeW6), the “Ca^2+-ATPase inhibition potency relative to Anderson type TeW6” value is given as “four times more potent”.
